The melting point is the temperature, or range, at which the solid turns liquid. Usually IC50 stands for the concentration that gives 50% inhibition. Read a low IC50 as inhibition by little substance.

Results on 10 molecules are retold here after US20090264485A1, “Pyrazole Derivatives, Their Manufacture and Their Use as Pharmaceutical Agents” (priority 2005, published 2009).

One data set relates to HEK293 cells. Nature of the data set: CellTiter-Glo Luminescent Cell Viability Assay in HEK293 cells. It counts as cell-based. The conditions noted are these: Homo sapiens, 168 h, 7 days incubation, CellTiter-Glo luminescence. An excerpt: CellTiter-Glo™ Assay in HEK293 Cells
The CellTiter-Glo™ Luminescent Cell Viability Assay (Promega) is a homogeneous method of determining the number of viable cells in culture based on quantitation of the ATP present, which signals the presence of metabolically active cells.
HEK293 cells (human embryonic kidney cell line transformed by Adenovirus 5 fragments, ATCC-No. CRL 1573) were cultivated in Dulbecco's Modified Eagle Medium (DMEM) with Glutamax™ (Invitrogen, 31966-021), 5% Fetal Calf Serum (FCS, Sigma Cat-No. F4135 (FBS)), 100 Units/ml penicillin/100 μg/ml streptomycin (=Pen/Strep from Invitrogen Cat. No. 15140). For the assay the cells were seeded in 384 well plates, 5000 cells per well, in the same medium. The next day the test compounds were added in various concentrations ranging from 3 μM to 0.00015 μM (10 concentrations, 1:3 diluted). After 7 days the CellTiter-Glo™ assay was done according to the instructions of the manufacturer (CellTiter-Glo™ Luminescent Cell Viability Assay, from Promega). In brief: the cell-plate was equilibrated to room temperature for approximately 30 minutes and than the CellTiter-Glo™ reagent was added. The contents were carefully mixed for 15 minutes to induce cell lysis. After 45 minutes the luminescent signal was measured in Victor 2, (scanning multiwell spectrophotometer, Wallac).
• Medium: Dulbecco's Modified Eagle Medium (DMEM) with Glutamax™ (Invitrogen, 31966-021), 5% Fetal Calf Serum (FCS, Sigma Cat-No. F4135 (FBS)), Pen/Strep (Invitrogen Cat. No. 15140). • HEK293 (ATCC-No. CRL 1573): 5000 cells in 60 μl per well of 384 well plate (Greiner 781098, white plates) • Incubate 24 h at 37° C., 5% CO2
In general the dilution steeps are 1:3 • a) Add 8 μl of 10 mM stock solution of compound to 72 μl DMSO • b) dilute 9×1:3 (always 30 μl to 60 μl DMSO) in this DMSO dilution row (results in 10 wells with concentrations from 1000 μM to 0.06 μM) • c) dilute each concentration 1:4.8 (10 μl compound dilution to 38 μl medium) • d) dilute each concentration 1:10 (10 μl compound dilution to 90 μl medium) • e) add 10 μl of every concentration to 60 μl medium in the cell plate • resulting in final concentration of DMSO: 0.3% in every well • and resulting in final concentration of compounds from 3 μM to 0.00015 μM • Incubate 168 h (7 days) at 37° C., 5% CO2
• Add 30 μl CellTiter-Glo™ Reagent/well, • shake 15 minutes at room temperature • incubate further 45 minutes at room temperature without shaking.
• Victor 2 scanning multiwell spectrophotometer (Wallac), Luminescence mode • Determine IC50 with XL-fit (XLfit software (ID Business Solution Ltd., Guilford, Surrey, UK)).
(In general: Cellular ATP, detected with luciferase, serves as a proxy for viable cell number.)

`Cc1cc(OCc2coc(/C=C/c3ccc(OC(F)(F)F)cc3)n2)ccc1C[S+]([O-])CCc1ccnn1C` (centres unmarked) [Example 5, 4-{3-Methyl-4-[2-(2-methyl-2H-pyrazol-3-yl)-ethanesulfinylmethyl]-phenoxymethyl}-2-[2-(E)-(4-trifluoromethoxy-phenyl)-vinyl]-oxazole]: the melting point was 138 to 139 °C. Regarding `Cc1cc(OCc2coc(/C=C/c3ccc(Cl)cc3)n2)ccc1C[S+]([O-])CCc1ccnn1C` (centres unmarked) [Example 6, 2-[2-(E)-(4-Chloro-phenyl)-vinyl]-4-{3-methyl-4-[2-(2-methyl-2H-pyrazol-3-yl)-ethanesulfinylmethyl]-phenoxymethyl}-oxazole], the melting point was in the range of 169 to 171 °C. In the data set with HEK293 cells, this molecule had an IC50 of 5 to 250 nM. As for `Cn1nccc1CCS(=O)(=O)Cc1ccc(OCc2coc(/C=C/c3ccc(C(F)(F)F)cc3)n2)cc1` [Example 10, 4-{4-[2-(2-Methyl-2H-pyrazol-3-yl)-ethanesulfonylmethyl]-phenoxymethyl}-2-[2-(4-trifluoromethyl-phenyl)-vinyl]-oxazole], the melting point was found to be 204 °C. Consider `Cc1cc(OCc2coc(/C=C/c3ccc(OC(F)(F)F)cc3)n2)ccc1COCCc1ccnn1C` [Example 1, 4-{3-Methyl-4-[2-(E)-(2-methyl-2H-pyrazol-3-yl)-ethoxymethyl]-phenoxymethyl}-2-[2-(4-trifluoromethoxy-phenyl)-vinyl]-oxazole], for which the melting point fell in the range of 77 to 78 °C. This molecule also came in with an IC50 with HEK293 cells of 95 nM. On to `Cc1cc(OCc2coc(/C=C/c3ccc(Cl)cc3)n2)ccc1COCCc1ccnn1C` [Example 3, 2-[2-(E)-(4-Chloro-phenyl)-vinyl]-4-{3-methyl-4-[2-(2-methyl-2H-pyrazol-3-yl)-ethoxymethyl]-phenoxymethyl}-oxazole], for which the melting point fell in the range of 106 to 107 °C. For the same molecule, the IC50 in the data set on HEK293 cells fell in the range of 5 to 250 nM. In turn, `Cn1nccc1CC[S+]([O-])Cc1ccc(OCc2coc(/C=C/c3ccc(C(F)(F)F)cc3)n2)cc1` (centres unmarked) [Example 9, 4-{4-[2-(2-Methyl-2H-pyrazol-3-yl)-ethanesulfinylmethyl]-phenoxymethyl}-2-[2-(E)-(4-trifluoromethyl-phenyl)-vinyl]-oxazole] gave a melting point of 172 to 174 °C. In the data set with HEK293 cells, this molecule registered an IC50 of 250 to 1000 nM. Molecule `Cc1cc(OCc2coc(/C=C/c3ccc(C(F)(F)F)cc3)n2)ccc1COCCc1ccnn1C` [Example 2, 4-{3-Methyl-4-[2-(E)-(2-methyl-2H-pyrazol-3-yl)-ethoxymethyl]-phenoxymethyl}-2-[2-(4-trifluoromethyl-phenyl)-vinyl]-oxazole] gave a melting point of 96 to 97 °C. The IC50 in the data set with HEK293 cells lay within 5 to 250 nM. Molecule `Cc1cc(OCc2coc(/C=C/c3ccc(C(F)(F)F)cc3F)n2)ccc1COCCc1ccnn1C` [Example 4, 2-[2-(E)-(2-Fluoro-4-trifluoromethyl-phenyl)-vinyl]-4-{3-methyl-4-[2-(2-methyl-2H-pyrazol-3-yl)-ethoxymethyl]-phenoxymethyl}-oxazole] displayed an IC50 in the data set with HEK293 cells of 5 to 250 nM.

Consider `Cn1nccc1CC[S+]([O-])Cc1ccc(OCc2coc(/C=C/c3ccc(OC(F)(F)F)cc3)n2)cc1` (centres unmarked) [Example 8, 4-{4-[2-(2-Methyl-2H-pyrazol-3-yl)-ethanesulfinylmethyl]-phenoxymethyl}-2-[2-(E)-(4-trifluoromethoxy-phenyl)-vinyl]-oxazole], for which the melting point lay in the range of 144 to 146 °C. The concentration for half-maximal inhibition (IC50) in the data set with HEK293 cells was 250 to 1000 nM. `Cc1cc(OCc2coc(/C=C/c3ccc(C(F)(F)F)cc3)n2)ccc1C[S+]([O-])CCc1ccnn1C` (centres unmarked) [Example 7, 4-{3-Methyl-4-[2-(2-methyl-2H-pyrazol-3-yl)-ethanesulfinylmethyl]-phenoxymethyl}-2-[2-(E)-(4-trifluoromethyl-phenyl)-vinyl]-oxazole] yielded a melting point of 161 to 162 °C. The IC50 in the data set with HEK293 cells was in the range of 5 to 250 nM.
